Reference: US4898815A (priority 1983, dated 1990)

Test system: intestinal loop of C3H mice
Set-up: species or system C3H mouse
Conditions: mouse, in vivo

## cholera toxin
  weight per cm of intestine (milligrams per centimeter of intestine): 126.7 mg
